Molecular target: T1, human ClC-2 (hClC-2) Cl^− channel (Homo sapiens, UniProt P51788)
T1 construct: gene CLCN2; recombinant hClC-2 stably expressed in HEK293EBNA cells
T1 sequence (P51788 2-898): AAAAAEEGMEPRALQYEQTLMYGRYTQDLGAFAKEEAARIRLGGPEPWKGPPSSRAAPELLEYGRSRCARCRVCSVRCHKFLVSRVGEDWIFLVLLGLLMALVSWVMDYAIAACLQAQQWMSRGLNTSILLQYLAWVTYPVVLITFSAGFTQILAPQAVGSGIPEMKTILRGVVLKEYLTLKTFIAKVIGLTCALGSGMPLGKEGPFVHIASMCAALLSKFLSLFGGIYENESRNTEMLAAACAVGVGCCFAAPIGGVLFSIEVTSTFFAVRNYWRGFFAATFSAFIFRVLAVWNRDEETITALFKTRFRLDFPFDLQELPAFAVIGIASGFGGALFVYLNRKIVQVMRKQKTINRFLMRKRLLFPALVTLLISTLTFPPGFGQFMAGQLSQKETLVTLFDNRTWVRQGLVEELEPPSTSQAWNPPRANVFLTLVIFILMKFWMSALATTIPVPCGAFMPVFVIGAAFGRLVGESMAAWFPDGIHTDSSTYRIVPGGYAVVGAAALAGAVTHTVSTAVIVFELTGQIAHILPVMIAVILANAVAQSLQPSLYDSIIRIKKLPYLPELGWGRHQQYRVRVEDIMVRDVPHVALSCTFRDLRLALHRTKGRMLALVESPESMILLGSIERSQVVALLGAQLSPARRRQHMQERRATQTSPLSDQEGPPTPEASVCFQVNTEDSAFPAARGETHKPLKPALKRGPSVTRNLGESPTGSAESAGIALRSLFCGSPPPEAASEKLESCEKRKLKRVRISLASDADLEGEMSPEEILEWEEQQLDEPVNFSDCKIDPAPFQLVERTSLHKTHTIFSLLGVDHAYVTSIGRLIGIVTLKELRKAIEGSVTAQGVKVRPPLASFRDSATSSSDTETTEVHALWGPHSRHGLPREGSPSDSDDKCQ
Assay: whole cell patch clamp, activation of Cl- currents at -140 mV
Format: cell-based

**Q.** For `CCCCC(F)(F)[C@@]1(O)CC[C@H]2[C@@H](CC(=O)[C@@H]2CCCCCCC(=O)O)O1` [Lubiprostone], which EC50 is on record?
**A.** 0.0282 µM

Source: PMC3627040, “Methadone but not Morphine Inhibits Lubiprostone-Stimulated Cl^− Currents in T84 Intestinal Cells and Recombinant Human ClC-2, but not CFTR Cl^− Currents” (Cell Biochemistry and Biophysics, 2012)
